Several values for one entry are separate records, joined by “and”; a condition that tells them apart may be missing. Equal entries are not always repeated. Where two headings read alike, the source gives them in different places.
Legend:
[1] = not given; remark: listed apart in the source
[2] = 1/BC50 plot, pyranoside 0 to 10.0 mM
Experimental: (§1) ^1H NMR titrations were performed in CDCl3 at a field strength of either 500, 800, or 900 MHz at 25, 20, 15, 10, or 5° C. The ^1H NMR resonances corresponding to both pyranoside and host were assigned through ^1H-^1H COSY and NOESY experiments.
(§2) This is the result of an exchange process involving 1 (H) and pyranoside (G) equilibria products exchanging fast on the NMR timescale, resulting in the averaging of chemical shifts of protons in differing chemical environments.
(§3) Fittings were conducted in Microsoft Excel 2007 using the Solver feature. […]
Thus, the binding of pyranosides was first studied under conditions where receptor 1 was maintained at a low concentration (<70 μM) to minimize the contribution of the Kdimer and K3 equilibria (FIG. 2). Once the values of K1 and K2 were determined, their values were held invariant in subsequent peak shift fittings, which facilitated the quantification of the other Kas. […]
(§4) For each non-mannoside, K1 was determined by subjecting all resolvable resonances from each titration at 25° C. to a global nonlinear fitting analysis with a model combining K1 and Kdimer (13.0±0.5 M^−1), which was measured independently by ^1H NMR dilution experiments (Table 1). […]

[3] = CDCl3, 25° C., extrapolated from a Van't Hoff plot
Experimental: as §1, §2, §3
Thus, the binding of pyranosides was first studied under conditions where receptor 1 was maintained at a low concentration (<70 μM) to minimize the contribution of the Kdimer and K3 equilibria (FIG. 2). Once the values of K1 and K2 were determined, their values were held invariant in subsequent peak shift fittings, which facilitated the quantification of the other Kas.
as §4

[4] = remark: listed apart in the source
Experimental: Note that all equilibria present in a receptor/pyranoside mixture contribute toward the calculated BC50 value, and a higher 1/BC50 value is indicative of a higher overall binding strength.
As each 1/BC50 plot is a measure of affinity between 1 and pyranosides, comparing the plots of two or more pyranosides provides a means of assessing selectivity.
The BC50^0 values of the pyranosides for receptor 1 were determined using Eq. 17.

[5] = 1:2 binding (K2), CDCl3, Van't Hoff

In the case of c1c[nH]c(CNCc2cc(CNCc3ccc[nH]3)cc(-c3cc(CNCc4ccc[nH]4)cc(CNCc4ccc[nH]4)c3)c2)c1 [Compound 1, N,N′,N′N″N′″-([1,1′-biphenyl]-3,3′,5,5′-tetrayltetrakis(methylene))tetrakis (1-(1H-pyrrol-2-yl)methanamine)], the “ΔH°” value [5] is reported as -20.2 ± 1.2 kcal/mol, the “ΔS°” value [5] is reported as −52±4 e.u and the “interaction parameter α for K3 (K3 / reference Ka)” value (2:1 binding, 25° C.) is reported as “at least 2.7”. For the same compound, the “approximate baseline (reference) Ka, 1:1 binding of 1 to the β-face of β-Man” value (from NMR detection limit, no NOEs on β-face, 0.5 mM 1, 1.0 mM β-Man, 25° C.) was ≤ 104 M⁻¹, the Kdimer ([1]; CDCl3, 5° C.) was 24.2 ± 0.5 M⁻¹ and the Kdimer ([1]; CDCl3, 10° C.) was 20.8 M⁻¹. For the same compound, the Kdimer ([1]; CDCl3, 15° C.) was 16.9 M⁻¹, the Kdimer ([1]; CDCl3, 20° C.) was 15.3 M⁻¹ and the Kdimer ([1]; CDCl3, 25° C.) was 13.0 M⁻¹ and 13.0 ± 0.5 M⁻¹. The “concentration of α-Man where the maximum 1/BC50 value (maximum selectivity) is obtained” value [2] was 0.8 mM, the “K3 (2:1 receptor:pyranoside binding)” value [3] was 3 M⁻¹ and the binding order ([4]; higher pyranoside concentrations (>1.0 mM)) was “α-Man>β-Man>β-Glc”. The binding order ([4]; pyranoside from 0.3 mM to 1.0 mM) was “α-Man>β-Glc>β-Man”.

Source: patent publication US9296688B2, “Carbohydrate-selective receptors” (New York University, priority 2012, dated 2016)
